System: beta-TC6 cells
Experiment: Insulin HTRF assay, relative activity Ar normalized to sunitinib
Assay type: cell-based
Details: Mus musculus, normalized to positive control sunitinib (5 µM = 100%), Table 10
In short: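 beta-TC6 cells (15k/well) were seeded for 24 or 48 h, washed and exposed to test compound or sunitinib (5 µM f.c.) in induction buffer with 0.5% DMSO for 2, 3 or 4 h at 37°C. Secreted insulin in the supernatant was measured by two-antibody HTRF after 120 min at RT. Ar = (V − 0% control)/(100% control − 0% control) × 100.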

| SMILES | Emax [%] |
| --- | --- |
| CN(C)c1ccc(-c2cnc3cnc(-c4ccccc4Cl)cn23)cc1 [compound 294, 4-[6-(2-chlorophenyl)imidazo[1,2-a]pyrazin-3-yl]-N,N-dimethyl-aniline] | 20 to 50 |
| CN(C)c1ccc(-c2cnc3cnc(-c4cccc(NS(C)(=O)=O)c4)cn23)cc1 [compound 295, N-[3-[3-(4-dimethylaminophenyl)imidazo[1,2-a]pyrazin-6-yl]phenyl]methanesulfonamide] | 20 to 50 |
| c1ccc(-c2cnc3cnc(-c4ccsc4)cn23)cc1 [compound 296, 3-phenyl-6-(3-thienyl)imidazo[1,2-a]pyrazine] | 20 to 50 |
| Fc1cccc(-c2cn3c(-c4ccccc4)cnc3cn2)c1 [compound 297, 6-(3-fluorophenyl)-3-phenyl-imidazo[1,2-a]pyrazine] | 20 to 50 |
| c1ccc(-c2cnc3cnc(-c4cccs4)cn23)cc1 [compound 298, 3-phenyl-6-(2-thienyl)imidazo[1,2-a]pyrazine] | 20 to 50 |
| O=C(NC1CC1)c1ccc(-c2cn3c(-c4ccccc4)cnc3cn2)cc1 [compound 299, N-cyclopropyl-4-(3-phenylimidazo[1,2-a]pyrazin-6-yl)benzamide] | 20 to 50 |
| c1ccc(-c2cn3c(-c4ccc5c(c4)OCO5)cnc3cn2)cc1 [compound 300, 3-(1,3-benzodioxol-5-yl)-6-phenyl-imidazo[1,2-a]pyrazine] | 50 to 100 |
| c1cc(-c2cn3c(-c4ccc5c(c4)OCO5)cnc3cn2)cs1 [compound 301, 3-(1,3-benzodioxol-5-yl)-6-(3-thienyl)imidazo[1,2-a]pyrazine] | 50 to 100 |
| CCOc1cccc(-c2cn3c(-c4ccc5c(c4)OCO5)cnc3cn2)c1 [compound 302, 3-(1,3-benzodioxol-5-yl)-6-(3-ethoxyphenyl)imidazo[1,2-a]pyrazine] | 50 to 100 |
| Clc1cccc(-c2cn3c(-c4ccc5c(c4)OCO5)cnc3cn2)c1 [compound 303, 3-(1,3-benzodioxol-5-yl)-6-(3-chlorophenyl)imidazo[1,2-a]pyrazine] | 50 to 100 |
| Fc1cccc(-c2cn3c(-c4ccc5c(c4)OCO5)cnc3cn2)c1 [compound 304, 3-(1,3-benzodioxol-5-yl)-6-(3-fluorophenyl)imidazo[1,2-a]pyrazine] | 50 to 100 |
| Cc1ccccc1-c1cn2c(-c3ccc4c(c3)OCO4)cnc2cn1 [compound 305, 3-(1,3-benzodioxol-5-yl)-6-(o-tolyl)imidazo[1,2-a]pyrazine] | 20 to 50 |
| c1csc(-c2cn3c(-c4ccc5c(c4)OCO5)cnc3cn2)c1 [compound 306, 3-(1,3-benzodioxol-5-yl)-6-(2-thienyl)imidazo[1,2-a]pyrazine] | 50 to 100 |
| c1ccc(Cn2cc(-c3cn4c(-c5ccc6c(c5)OCO6)cnc4cn3)cn2)cc1 [compound 307, 3-(1,3-benzodioxol-5-yl)-6-(1-benzylpyrazol-4-yl)imidazo[1,2-a]pyrazine] | 50 to 100 |
| COc1cc(OC)cc(-c2cn3c(-c4ccc5c(c4)OCO5)cnc3cn2)c1 [compound 308, 3-(1,3-benzodioxol-5-yl)-6-(3,5-dimethoxyphenyl)imidazo[1,2-a]pyrazine] | 50 to 100 |
| Nc1ccc(-c2cn3c(-c4ccc5c(c4)OCO5)cnc3cn2)cn1 [compound 309, 5-[3-(1,3-benzodioxol-5-yl)imidazo[1,2-a]pyrazin-6-yl]pyridin-2-amine] | 10 to 20 |
| CC(C)Oc1cccc(-c2cn3c(-c4ccc5c(c4)OCO5)cnc3cn2)c1 [compound 310, 3-(1,3-benzodioxol-5-yl)-6-(3-isopropoxyphenyl)imidazo[1,2-a]pyrazine] | 50 to 100 |
| c1ccc(Oc2ccccc2-c2cn3c(-c4ccncc4)cnc3cn2)cc1 [compound 311, 6-(2-phenoxyphenyl)-3-(4-pyridyl)imidazo[1,2-a]pyrazine] | 20 to 50 |
| Cc1cc(-c2cn3c(-c4ccncc4)cnc3cn2)cc(C)c1O [compound 312, 2,6-dimethyl-4-[3-(4-pyridyl)imidazo[1,2-a]pyrazin-6-yl]phenol] | 20 to 50 |
| c1csc(-c2cn3c(-c4ccncc4)cnc3cn2)c1 [compound 314, 3-(4-pyridyl)-6-(2-thienyl)imidazo[1,2-a]pyrazine] | 20 to 50 |
| c1cncc(-c2cnc3cnc(-c4ccc(N5CCOCC5)cc4)cn23)c1 [compound 315, 4-[4-[3-(3-pyridyl)imidazo[1,2-a]pyrazin-6-yl]phenyl]morpholine] | 20 to 50 |
| c1cncc(-c2cnc3cnc(-c4cc5ccccc5s4)cn23)c1 [compound 316, 6-(benzothiophen-2-yl)-3-(3-pyridyl)imidazo[1,2-a]pyrazine] | 20 to 50 |
| CSc1ccc(-c2cn3c(-c4cccnc4)cnc3cn2)cc1 [compound 317, 6-(4-methylsulfanylphenyl)-3-(3-pyridyl)imidazo[1,2-a]pyrazine] | 20 to 50 |
| CS(=O)(=O)Nc1cccc(-c2cn3c(-c4cccnc4)cnc3cn2)c1 [compound 318, N-[3-[3-(3-pyridyl)imidazo[1,2-a]pyrazin-6-yl]phenyl]methanesulfonamide] | 20 to 50 |

| SMILES | Emax [%] |
| --- | --- |
| c1coc(-c2cn3c(-c4ccsc4)cnc3cn2)c1 [compound 319, 6-(2-furyl)-3-(3-thienyl)imidazo[1,2-a]pyrazine] | 20 to 50 |
| Fc1ccc(-c2cn3c(-c4ccsc4)cnc3cn2)cc1Cl [compound 320, 6-(3-chloro-4-fluoro-phenyl)-3-(3-thienyl)imidazo[1,2-a]pyrazine] | 20 to 50 |
| O=C(NCCO)c1ccc(-c2cn3c(-c4ccsc4)cnc3cn2)cc1 [compound 321, N-(2-hydroxyethyl)-4-[3-(3-thienyl)imidazo[1,2-a]pyrazin-6-yl]benzamide] | 10 to 20 |
| c1csc(-c2cn3c(-c4ccsc4)cnc3cn2)c1 [compound 322, 6-(2-thienyl)-3-(3-thienyl)imidazo[1,2-a]pyrazine] | 50 to 100 |
| COc1cc(OC)cc(-c2cn3c(-c4ccsc4)cnc3cn2)c1 [compound 323, 6-(3,5-dimethoxyphenyl)-3-(3-thienyl)imidazo[1,2-a]pyrazine] | 20 to 50 |
| Oc1ccc(-c2cnc3cnc(-c4ccc(Cl)cc4)cn23)cc1 [compound 324, 4-[6-(4-chlorophenyl)imidazo[1,2-a]pyrazin-3-yl]phenol] | 20 to 50 |
| CC(C)N1CCN(c2ccc(-c3cn4c(-c5ccc(O)cc5)cnc4cn3)cc2)CC1 [compound 325, 4-[6-[4-(4-isopropylpiperazin-1-yl)phenyl]imidazo[1,2-a]pyrazin-3-yl]phenol] | 20 to 50 |
| O=C(NC1CC1)c1ccc(-c2cn3c(-c4ccc(O)cc4)cnc3cn2)cc1 [compound 326, N-cyclopropyl-4-[3-(4-hydroxyphenyl)imidazo[1,2-a]pyrazin-6-yl]benzamide] | 20 to 50 |
| Cn1cc(-c2cn3c(-c4ccc(O)cc4)cnc3cn2)cn1 [compound 327, 4-[6-(1-methylpyrazol-4-yl)imidazo[1,2-a]pyrazin-3-yl]phenol] | 20 to 50 |
| CCOc1cccc(-c2cn3c(-c4ccc(CCC(=O)O)cc4)cnc3cn2)c1 [compound 328, 3-[4-[6-(3-ethoxyphenyl)imidazo[1,2-a]pyrazin-3-yl]phenyl]propanoic acid] | ≥ 100 |
| O=C(O)CCc1ccc(-c2cnc3cnc(-c4cccc(Cl)c4)cn23)cc1 [compound 329, 3-[4-[6-(3-chlorophenyl)imidazo[1,2-a]pyrazin-3-yl]phenyl]propanoic acid] | 20 to 50 |
| Cc1ccccc1-c1cn2c(-c3ccc(CCC(=O)O)cc3)cnc2cn1 [compound 330, 3-[4-[6-(o-tolyl)imidazo[1,2-a]pyrazin-3-yl]phenyl]propanoic acid] | 20 to 50 |
| O=C(O)CCc1ccc(-c2cnc3cnc(-c4ccccc4Cl)cn23)cc1 [compound 331, 3-[4-[6-(2-chlorophenyl)imidazo[1,2-a]pyrazin-3-yl]phenyl]propanoic acid] | 50 to 100 |
| O=C(O)CCc1ccc(-c2cnc3cnc(-c4cccs4)cn23)cc1 [compound 332, 3-[4-[6-(2-thienyl)imidazo[1,2-a]pyrazin-3-yl]phenyl]propanoic acid] | 20 to 50 |
| O=C(O)CCc1ccc(-c2cnc3cnc(-c4ccccc4CO)cn23)cc1 [compound 333, 3-[4-[6-[2-(hydroxymethyl)phenyl]imidazo[1,2-a]pyrazin-3-yl]phenyl]propanoic acid] | 20 to 50 |
| Cc1cccc(-c2cn3c(-c4ccc(CCC(=O)O)cc4)cnc3cn2)c1C [compound 334, 3-[4-[6-(2,3-dimethylphenyl)imidazo[1,2-a]pyrazin-3-yl]phenyl]propanoic acid] | 50 to 100 |
| N#Cc1ccc(-c2cnc3cnc(-c4ccccc4)cn23)cc1 [compound 335, 4-(6-phenylimidazo[1,2-a]pyrazin-3-yl)benzonitrile] | 20 to 50 |
| N#Cc1ccc(-c2cnc3cnc(-c4ccsc4)cn23)cc1 [compound 336, 4-[6-(3-thienyl)imidazo[1,2-a]pyrazin-3-yl]benzonitrile] | 20 to 50 |
| N#Cc1ccc(-c2cnc3cnc(-c4ccc(Cl)cc4)cn23)cc1 [compound 337, 4-[6-(4-chlorophenyl)imidazo[1,2-a]pyrazin-3-yl]benzonitrile] | 50 to 100 |
| N#Cc1ccc(-c2cnc3cnc(-c4ccc(CO)cc4)cn23)cc1 [compound 338, 4-[6-[4-(hydroxymethyl)phenyl]imidazo[1,2-a]pyrazin-3-yl]benzonitrile] | 20 to 50 |
| N#Cc1ccc(-c2cnc3cnc(-c4cccs4)cn23)cc1 [compound 339, 4-[6-(2-thienyl)imidazo[1,2-a]pyrazin-3-yl]benzonitrile] | 20 to 50 |
| COc1cc(-c2cnc3cnc(-c4ccc(N5CCN(C)CC5)nc4)cn23)cc(OC)c1OC [compound 340, 6-[6-(4-methylpiperazin-1-yl)-3-pyridyl]-3-(3,4,5-trimethoxyphenyl)imidazo[1,2-a]pyrazine] | 20 to 50 |
| CN(C)c1cccc(-c2cnc3cnc(-c4ccncc4)cn23)c1 [compound 342, N,N-dimethyl-3-[6-(4-pyridyl)imidazo[1,2-a]pyrazin-3-yl]aniline] | 20 to 50 |
